Here are results for one compound from patent US10155004B2, “17-hydroxy-17-pentafluoroethyl-estra-4,9(10)-dien-11-aryl derivatives, method of production thereof and use thereof for the treatment of diseases” (BAYER INTELLECTUAL PROPERTY GMBH, priority 2009, dated 2018).

The target of series [1] is T1, human progesterone receptor A (Homo sapiens, UniProt P06401).
T1 construct: expressed in transfected cells; host or cells: SK-N-MC human neuroblastoma cells, stably transfected
T1 sequence (P06401 1-769 isoform P06401-2): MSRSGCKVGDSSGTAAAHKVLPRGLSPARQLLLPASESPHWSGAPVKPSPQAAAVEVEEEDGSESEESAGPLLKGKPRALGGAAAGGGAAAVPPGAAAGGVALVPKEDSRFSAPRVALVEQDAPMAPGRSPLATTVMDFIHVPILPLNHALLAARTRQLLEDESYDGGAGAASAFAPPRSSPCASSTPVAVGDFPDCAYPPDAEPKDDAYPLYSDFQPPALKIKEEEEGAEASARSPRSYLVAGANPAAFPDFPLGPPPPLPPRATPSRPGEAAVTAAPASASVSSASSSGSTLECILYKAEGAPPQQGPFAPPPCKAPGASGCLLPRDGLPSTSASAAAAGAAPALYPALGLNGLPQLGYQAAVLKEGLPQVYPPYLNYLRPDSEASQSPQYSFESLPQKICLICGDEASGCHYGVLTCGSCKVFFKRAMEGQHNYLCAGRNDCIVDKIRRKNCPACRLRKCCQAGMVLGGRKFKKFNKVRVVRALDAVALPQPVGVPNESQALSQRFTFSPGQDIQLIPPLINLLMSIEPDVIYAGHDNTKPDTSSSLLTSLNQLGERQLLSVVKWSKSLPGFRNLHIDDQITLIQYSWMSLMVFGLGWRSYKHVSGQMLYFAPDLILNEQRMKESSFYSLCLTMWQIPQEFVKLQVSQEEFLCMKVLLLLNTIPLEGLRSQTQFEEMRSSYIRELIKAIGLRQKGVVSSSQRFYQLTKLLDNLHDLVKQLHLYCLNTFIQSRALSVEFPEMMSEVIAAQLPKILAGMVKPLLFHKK
Nature of the series: Progesterone receptor-antagonistic action in stably transfected SK-N-MC cells, MTV-LUC reporter (PR-A). It is filed as cell-based. The following applies: antagonistic efficacy vs 0.1 nmol/l promegestone. On the procedure:
(§1) EXAMPLE 16 PROGESTERONE RECEPTOR-ANTAGONISTIC ACTION IN STABLE TRANSFECTANTS OF HUMAN NEUROBLASTOMA CELLS (SK-N-MC CELLS) WITH THE HUMAN PROGESTERONE A OR PROGESTERONE B RECEPTOR AND AN MTV-LUC REPORTER CONSTRUCT
(§2) SK-N-MC cells (human neuroblastoma cells), which have been stably transfected with plasmids, which express the human progesterone receptor B (pRChPR-B-neo) or the human progesterone receptor A (pRChPR-A-neo) and a reporter construct (pMMTV-LUC), were incubated for 24 hours either in the absence (negative control) or in the presence of increasing amounts of the respective test compound (0.01 nmol/l, 0.1 nmol/l 1 nmol/l, 10 nmol/l, 100 nmol/l and 1 μmol/l), in order to determine the agonistic efficacy. As positive control of reporter gene induction, the cells were treated with the synthetic gestagen promegestone (0.01 nmol/l, 0.1 nmol/l, 1 nmol/l, 10 nmol/l, 100 nmol/l and 1 μmol/l). For determination of the antagonistic activity, the cells were treated with 0.1 nmol/1 promegestone and additionally with increasing amounts of the respective test compound (0.01 nmol/l, 0.1 nmol/l, 1 nmol/l, 10 nmol/l, 100 nmol/l and 1 μmol/l). The activity of the LUC reporter gene (LUC=luciferase) was determined in the cell lysates and was measured as RLU (relative light units). All measured values are given as percentage efficacy and as EC50 or IC50 concentrations.
(§3) 11β-(4-Acetylphenyl)-20,20,21,21,21-pentafluoro-17-hydroxy-19-nor-17α-pregna-4,9-dien-3-one and 20,20,21,21,21-pentafluoro-17-hydroxy-11β-[4-(hydroxyacetyl)phenyl]-19-nor-17α-pregna-4,9-dien-3-one, very potent and therefore preferred examples from WO98/34947 and WO2008/058767, were tested as comparative compounds along with the test compound.

Series [2] addresses T2, human progesterone receptor B (Homo sapiens, UniProt P06401).
T2 construct: expressed in transfected cells; host or cells: SK-N-MC human neuroblastoma cells, stably transfected
T2 sequence (P06401 1-933): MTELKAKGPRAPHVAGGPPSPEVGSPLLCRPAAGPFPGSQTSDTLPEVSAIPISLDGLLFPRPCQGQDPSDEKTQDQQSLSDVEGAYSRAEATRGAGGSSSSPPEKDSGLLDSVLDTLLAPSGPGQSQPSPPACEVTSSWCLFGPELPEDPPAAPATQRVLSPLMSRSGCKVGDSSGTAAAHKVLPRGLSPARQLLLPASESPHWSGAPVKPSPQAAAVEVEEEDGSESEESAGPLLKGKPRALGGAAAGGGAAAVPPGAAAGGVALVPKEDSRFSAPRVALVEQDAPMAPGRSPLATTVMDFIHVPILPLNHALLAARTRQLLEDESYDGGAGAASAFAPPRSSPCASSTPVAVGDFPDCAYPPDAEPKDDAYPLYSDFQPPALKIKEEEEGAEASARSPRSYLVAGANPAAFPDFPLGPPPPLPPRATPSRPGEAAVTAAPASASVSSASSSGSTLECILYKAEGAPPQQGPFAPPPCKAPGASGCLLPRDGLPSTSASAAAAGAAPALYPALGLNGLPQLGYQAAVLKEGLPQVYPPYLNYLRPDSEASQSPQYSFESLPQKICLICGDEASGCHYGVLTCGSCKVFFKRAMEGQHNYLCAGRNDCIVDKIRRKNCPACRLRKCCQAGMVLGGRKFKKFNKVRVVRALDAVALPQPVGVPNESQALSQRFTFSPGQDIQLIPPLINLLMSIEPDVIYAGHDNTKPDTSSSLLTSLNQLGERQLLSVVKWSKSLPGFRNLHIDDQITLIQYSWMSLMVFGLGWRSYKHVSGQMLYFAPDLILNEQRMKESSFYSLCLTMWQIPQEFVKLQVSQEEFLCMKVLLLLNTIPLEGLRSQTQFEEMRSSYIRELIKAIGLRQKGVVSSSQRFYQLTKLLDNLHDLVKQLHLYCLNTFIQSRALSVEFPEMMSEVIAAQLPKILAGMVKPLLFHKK
Put plainly: Progesterone receptor-antagonistic action in stably transfected SK-N-MC cells, MTV-LUC reporter (PR-B). Conditions: antagonistic efficacy vs 0.1 nmol/l promegestone. It is filed as cell-based. On the procedure:
as §1, §2, §3

The subject of another series is rodents and non-rodents. Conditions: in vivo.
Series [3] can be described thus: Chemical stability against temperature, light and oxidative stress. Type of series: physicochemical. The following applies: compared with analogue with alkanoyl or hydroxyalkanoyl group.

For the compound `C[C@]12C[C@H](c3ccc(S(C)(=O)=O)cc3)C3=C4CCC(=O)C=C4CC[C@H]3[C@@H]1CC[C@@]2(O)C(F)(F)C(F)(F)F` [Example 4, (11β,17β)-17-Hydroxy-11-[4-(methylsulphonyl)phenyl]-17-(pentafluoroethyl)estra-4,9-dien-3-one], in series [1], the “Progesterone receptor A (PR-A) Efficacy” value was found to be 100%. For the same compound, the “Progesterone receptor B (PR-B) Efficacy” value in series [2] amounted to 100%. Moreover, the safety profile entry in the series on rodents and non-rodents is listed as “especially favourable safety profile”. In series [3], the oxidation sensitivity result is “surprisingly low oxidation sensitivity”, the “stability under the influence of UV light” value is recorded as “surprisingly high stability” and the “stability under thermal load” value is “surprisingly high stability under thermal load”.
